Data taken from patent publication US20230272357A1, “METHODS OF GENOME EDITING INCLUDING CONTROLLED OPENING OF CHROMATIN” (Wisconsin Alumni Research Foundation, priority 2021, published 2023).

What was measured:
[1] = system: on-target and top off-target sites of HIST1H2BJ-GFP, AAVS1 S10, EMX1; assay: Off-target analysis of edited iPSCs (CHANGE-seq/GUIDE-seq sites, rhAmpSeq); format: cell-based, human
Protocol: Genome-wide, off-target analysis: Genomic DNA from iPSCs was isolated using Gentra® Puregene® Kit (Qiagen) according to the manufacturer's instructions. CHANGE-seq was performed as described in the art. Briefly, purified genomic DNA was tagmented with a custom Tn5-transposome to an average length of 400 bp, followed by gap repair with Kapa HiFi HotStart Uracil+DNA Polymerase (KAPA Biosystems) and Taq DNA ligase (NEB). Gap-repaired tagmented DNA was treated with USER™ enzyme (NEB) and T4 polynucleotide kinase (NEB). Intramolecular circularization of the DNA was performed with T4 DNA ligase (NEB) and residual linear DNA was degraded by a cocktail of exonucleases containing Plasmid-Safe ATP-dependent DNase (Lucigen), Lambda exonuclease (NEB), and Exonuclease I (NEB). In vitro cleavage reactions were performed with 125 ng of exonuclease-treated circularized DNA, 90 nM of SpCas9 protein (NEB), NEB buffer 3.1 (NEB) and 270 nM of sgRNA, in a 50 μL volume. Cleaved products were A-tailed, ligated with a hairpin adaptor (NEB), treated with USER™ enzyme (NEB), and amplified by PCR with barcoded universal primers NEBNext® Multiplex Oligos for Illumina® (NEB), using Kapa HiFi Polymerase (KAPA Biosystems). Libraries were quantified by qPCR (KAPA Biosystems) and sequenced with 151 bp paired-end reads on an Illumina® NextSeq instrument. CHANGE-seq data analyses were performed using open-source CHANGE-seq analysis software.
To determine the indel frequency at CHANGE-seq-identified off-target sites, on and off-target sites for were amplified from iPSC genomic DNA obtained using rhAmpSeg™ system (IDT), and sequencing libraries were generated according to the manufacturer's instructions. Sequencing was then performed with 150-bp paired-end reads on an Illumina® Miniseq instrument. Analysis was performed using CRISPAltRations: IDT rhAmpSeq CRISPR analysis tool.
Highly sensitive genome-wide, off-target analysis for our TSA-based editing strategy was assayed by CHANGE-seq at HIST1H2BJ-GFP site, which yielded a frequency distribution of the potential off-target sites (FIG. 3A,B). Top 12 off-target sites were amplified from genomic DNA using the rhAmp-Seq system (IDT) and subsequently sequenced using the Illumina® MiniSeq™ system. Sequencing data was then analyzed using the CRISPAltRations tool, which allowed for quantitative analysis of observed indel mutations (data not shown). […] Furthermore, the highest normalized on-target edit ratio was obtained for TSA concentration of 6.25 ng/mL, representative of the optimal TSA concentration for generating gene editing iPSCs.

iPSCs = assay: Cell viability by Ghost Dye Red 780 flow cytometry; format: cell-based, human
Protocol: Cell viability: Flow cytometry was performed using Ghost Dye™ Red 780 viability dye (Tonbo Biosciences) to determine the dose range of the TSA that can be administrated to the cells without affecting cell viability. iPSCs (15,000 per well) were cultured overnight and incubated with TSA in 96-well plates for 24 h. The next day, cells were singularized using Accutase™ (STEMCELL technologies), washed with PBS, centrifuged at 300 g for 5 minutes, and Ghost Dye™ Red 780 viability dye was added at 1:1000 concentration for 20 minutes at room temperature. Cells were then washed with PBS, spun down at 300g for 5 minutes, and resuspended in 300 μL of PBS. Cells were run on an Attune NxT™ flow cytometer (Thermo Fisher Scientific) and subsequent analysis was performed using Flowjo software (BD).
Flow cytometry and fluorescence activated cell sorting: Flow cytometry was performed on singularized iPSCs using Attune™ Nxt flow cytometer (ThermoFisher Scientific) and analyzed using the FlowJo Software. Ghost Dye™ Red 780, ATTO 550, and GFP fluorescence were detected using 780/60, 585/16, and 530/30 filters in […] positions, respectively. Gates were established by running singularized untransfected iPSCs. The percentage of viable cells was calculated as the ratio of Ghost Dye™ Red 780-cells to the total number of single cells. Transfection efficiency was calculated as the percentage of ATTO 550+ cells to the total number of viable cells on day 2 post-transfection. Gene editing efficiency was calculated as the percentage of GFP-cells to the total number of viable cells on day 6 post-transfection. For the sorting experiments, iPSCs were singularized 6 days post-transfection using Accutase™, washed with PBS+20 μM ROCK inhibitor, centrifuged at 300 g for 5 minutes. Ghost Dye™ Red 780 viability dye (Tonbo Biosciences) was then added at 1:1000 concentration for 20 minutes at room temperature. Cells were washed again with PBS+20 μM ROCK inhibitor, spun down at 300 g for 5 minutes, and resuspended in 300 μL of FACS buffer (PBS+2% BSA+20 μM ROCK inhibitor). GFP-cells were then sorted into tubes containing mTeSR1+20 μM ROCK inhibitor, and seeded onto Matrigel®-coated 6 well polystyrene plates at 100 cells/well to obtain single-cell iPSC clones.

[2] = HIST1H2BJ-GFP, AAVS1 S10, EMX1, with TSA concentration, FIG. 3C-E

In the case of `CC(/C=C/C(=O)NO)=C\[C@@H](C)C(=O)c1ccc(N(C)C)cc1` [TSA, Trichostatin A], the “TSA concentration giving highest normalized on-target edit ratio” value ([1]; AAVS1 S10 and EMX1 loci) is reported as 6.25 ng/mL, the “TSA concentration giving highest normalized on-target edit ratio” value ([1]; HIST1H2BJ-GFP site) is reported as 6.25 ng/mL and the “TSA concentration giving highest normalized on-target edit ratio” value ([1]; HIST1H2BJ-GFP, AAVS1 S10, EMX1, FIG. 3C-E) is reported as 6.25 ng/mL. The Off-target indel % [1, 2] was “remains the same”, the On-target indel % [1, 2] was “increases” and the “Indel % at off-target sites” value ([1]; top 12 off-target sites of HIST1H2BJ-GFP, upon TSA treatment) was “did not increase”. The “Indel % at off-target sites” value ([1]; top off-target sites for AAVS1 S10 and EMX1 loci) was “no significant increase”, the Cell toxicity (iPSCs; 12.5 ng/mL TSA, FIG. 1E) was “higher cell toxicity” and the “Cell viability (% GhostDye- cells/total cells)” value (iPSCs; TSA 0, 3.13, 6.25, 12.5 ng/mL, FIG. 1D) was “decreases”. The Cell viability (iPSCs; iPSCs, TSA 0-200 ng/mL, data not shown) was “decreased with the increase in TSA concentration” and the “TSA concentration with considerable decrease in cell viability” value (iPSCs; iPSCs, TSA range 0-200 ng/mL tested) was over 25 ng/mL.
